Data taken from US7906484B2, “Complex for transferring an anionic substance into a cell” (Alnylam Pharmaceuticals, Inc., priority 2006, dated 2011).
No end group written: not given here.

Tests used:
eGFP-mRNA = assay: Influence of peptide/siRNA ratio on siRNA activity in HCT116 cells; format: cell-based; settings: 250 nM siRNA
Experimental: The optimal ratio of (peptide):(anionic substance) for complex formation, was determined in section 3 above to lie in the range of 8:1 to 13:1 by titrating a fixed concentration of the anionic substance with increasing amounts of the peptide, and monitoring complex formation by electrophoresis of the mixture. To further validate and possibly narrow down the optimum ratio of peptide/anionic substance, an assay with a functional readout was performed. HCT116 cells were incubated with siRNA complexes as described above at concentrations such that the amount of siRNA in the incubation mixture corresponds to a 250 nM concentration of the siRNA, and the peptide/siRNA ratio was 8:1, 10:1, 12:1, or 14:1.

[1] = tested on: E6AP mRNA in HCT116 cells; assay: siRNA AD-8724 delivery into HCT116 cells, inhibition of E6AP mRNA expression by bDNA assay; format: cell-based, human; settings: for capacity for cross membrane transport of siRNA (quantity not given): 37° C., siRNA/peptide conc. 250 nM/2.5 μM
Experimental: All further experiments were carried out using HCT116 cells and inhibition of E6AP expression as readout.
HCT116-cells were obtained from the American Type Culture Collection (ATCC# CCL-247). They were cultured in McCoy's 5A medium (Biochrom AG, Berlin, Germany, Cat.# F1015) containing 10% fetal calf serum (FCS; Biochrom AG, Berlin, Germany, Cat.# S0115) and 2 mM L-Glutamin (Biochrom AG, Berlin, Germany, Cat.#: K0283) (standard growth medium). For incubation with peptide/siRNA, complexes, the medium was replaced by serum-free McCoy's 5A medium containing 2 mM L-Glutamin (serum free medium). After incubation with complexes for 4 h, McCoy's 5A medium containing 30% fetal calf serum and 2 mM L-Glutamin (triple FCS medium) was added to restore an overall 10% FCS in the medium.
The E6AP-specific siRNA denoted AD-8724 herein was used, having the following sequences: antisense strand: 5′-ucacauuccacguuaggugTsT-3′ (SEQ ID NO:51), sense strand 5′-caccuaacguggaaugugaTsT-3′; (SEQ ID NO:52; lower case letters: ribonucleotides; s: phosphorothioate backbone linkage). As a negative control, an siRNA specific for eGFP, denoted AD-5107 herein, was used, having the following sequences: antisense strand: 5′-aagucgugcugcuucauguggOMesuOMesc-3′ (SEQ ID NO:19), sense strand 5′-[…]-3′ (SEQ ID NO:18; lower case letters: ribonucleotides; subscript OMe: 2′-O-methyl-ribonucleotide; s: phosphorothioate backbone linkage). In addition to the non-specific control siRNA AD-5107, mock transfected cells treated with standard growth medium only were used as negative controls. As a positive control, AD-8724 was transfected into the cells using Lipofectamine2000™ (Invitrogen, Karlsruhe, Germany, Cat. No. 11668-019). As a further control, AD-5107 was transfected into cells using Lipofectamine2000™. All assays were performed in quadruplicates.
SiRNA/peptide complexes were prepared by mixing a solution of the siRNA in deionized water with a solution of the peptide in deionized water at the appropriate concentrations to give the desired ratio of siRNA/peptide at the desired concentration of the complex. The mixture was incubated at room temperature for 30 min and kept at 4° C. until use, and used within 24 h.
For transfections with siRNA/peptide complexes, 1.5×10^5 HCT116-cells per well in 150 μl standard growth medium were seeded into polystyrene 96 well plates and grown for 24 h at 37° C. in an atmosphere containing 5% CO2. The medium was removed by aspiration, and 90 μl serum-free medium and 10 μl of siRNA/peptide complex solution were added. Cells were incubated for 4 h at 37° C./5% CO2, 50 μl triple FCS medium were added, and the cells incubated for another 20 h under identical conditions. Subsequently, E6AP mRNA content was determined as described below.
For Lipofectamine2000™ transfections, 0.5 μl Lipofectamine2000™ were mixed with 12 μl OptiMem™ (Invitrogen, Karlsruhe, Germany, Cat. No. 11058-021) and incubated for 15 min. 1 μl of a 5 μM solution of the respective siRNA in PBS (Biochrom AG, Berlin, Germany, Cat-No: L182-05) were added to 11.5 μl OptiMeM™, mixed with the Lipofectamine2000™/OptiMem™ solution, and incubated for further 15 min. 1.5×10^5 HCT116-cells per well in 150 μl standard growth medium were grown for 24 h as described above, the growth medium removed from the cells by aspiration, and 75 μl fresh standard growth medium and the 25 μl of the siRNA/Lipofectamine2000™ mix were added to the well, to give a final siRNA concentration of 50 nM. The cells were incubated for 24 h at 37° C./5% CO2 and E6AP mRNA concentration determined.
The QuantiGene™ bDNA-kit from Panomics, Inc., Fremont, USA, was used according to manufacturer's instructions. Briefly, cells were lysed by adding 50 μl of Lysis Mixture (from QuantiGene bDNA-kit) to each well and incubation at 53° C. for 1 h. […]

[2] = tested on: E6AP mRNA in HCT116 cells; assay: as above; format: cell-based, human; settings: 4° C., siRNA/peptide conc. 250 nM/2.5 μM
cell viability = assay: CytoTox ONE cell viability assay; format: cell-based; settings: 2.5 μM peptide
Experimental: Delivery of siRNAs was tested in 7 different cell lines we obtained from the American Type Culture Collection, ATCC, via LCG Promochem GmbH, Wesel, Germany (PC12, ATTC# CRL-1721; HCT116, ATCC# CCL-247; C33A, ATCC# HTB-31; H441, ATCC# HTB-174; NMuLi, ATCC# CRL-1638; HepG2, ATCC# HB-8065; HeLa S3, ATCC# CCL2.2) and in the cell line KB-BCL2-GFP, as described in co-pending U.S. Ser. No. 10/941,663. Target mRNA quantification was performed using the QuantiGene™ bDNA-kit from Panomics, Inc., Fremont, USA, according to the manufacturers instructions, and essentially as described below for H441 cells. Genes constitutively expressed in the various cell lines were chosen as targets and results normalized to GAPDH expression. siRNA concentration was 250 nM, the concentration of the peptide was chosen as given by the molar ratio peptide/siRNA shown in Table 1. Cytotoxicity of peptides was evaluated employing the CytoTox-ONE™ assay (Promega GmbH, Mannheim, Germany).
Potential cytotoxic effects as mediator of inhibition were ruled out by determining cell viability in the presence of 2.5 μM of ppTG20, AP-0, AP-1, AP-27, AP-30, AP32 and AP-34 using the CytoTox ONE™ assay (Promega GmbH, Mannheim, Germany).

[3] = tested on: ENaC-alpha mRNA in H441 cells; assay: siRNA delivery into H441 cells, ENaC-alpha mRNA quantified by bDNA assay; format: cell-based, human; settings: AD-7007
Experimental: In order to test the potential of adding Histidine residues for improving the cross-membrane transport properties of peptides, we synthesized a modified ppTG20, termed ppTGHis herein, wherein 4 consecutive Histidine moieties were added to the C-terminus of ppTG20. We then compared the transport of siRNAs complexed with ppTG20 or ppTGHis into H441 cells, as evaluated by the ability of siRNAs to inhibit the expression of a gene constitutively expressed in H441 cells, ENaC-alpha. […]
For transfection with peptide/siRNA complexes, H441 cells were seeded at 1.5×10^4 cells/well on 96-well plates (Greiner Bio-One GmbH, Frickenhausen, Germany) in 75 μl of growth medium. […] Thereafter, the cells were lysed by adding 50 μl of lysis mixture (content of the QuantiGene bDNA-kit from Panomics, Inc., Fremont, USA) to each well containing 100 μl of growth medium at 53° C. for 30 min, and ENaC mRNA levels were subsequently quantified with the Quantigene Explore Kit (Panomics, Inc., Dumbarton Circle Fremont, USA, cat. No. QG-000-02) according to the manufacturer's protocol. Finally, chemoluminescence was measured in a Victor2-Light (Perkin Elmer, Wiesbaden, Germany) as RLUs (relative light units) and values obtained with the hENaC probeset were normalized to the respective GAPDH values for each well (probe sequences shown in Table 2 and Table 3). […]

[4] = AD-8724, siRNA/peptide conc. 25 nM/250 nM
[5] = AD-8724, siRNA/peptide conc. 250 nM/2.5 μM
[6] = AD-8724, siRNA/peptide conc. 1 μM/10 μM
[7] = siRNA AD-8724 250 nM, molar peptide/siRNA ratio 12.5:1

RLFRALLRLLRSLWRLLRRA [AP-4]
Remaining eGFP-mRNA in % of mock-transfected controls (eGFP-mRNA; peptide/siRNA ratio 8:1): 23 ± 6%
Remaining eGFP-mRNA in % of mock-transfected controls (eGFP-mRNA; peptide/siRNA ratio 10:1): 18 ± 6%
Remaining eGFP-mRNA in % of mock-transfected controls (eGFP-mRNA; peptide/siRNA ratio 12:1): 52 ± 6%
Remaining eGFP-mRNA in % of mock-transfected controls (eGFP-mRNA; peptide/siRNA ratio 14:1): 43 ± 4%
capacity for cross membrane transport of siRNA (quantity not given) [1]: 30 ± 5% RT
remaining E6AP mRNA (in % of mock) [1, 4]: 96 ± 24%
remaining E6AP mRNA (in % of mock) [1, 5]: 49 ± 11%
remaining E6AP mRNA (in % of mock) [1, 6]: 37 ± 9%
remaining E6AP mRNA (in % of mock) [1, 7]: 34 ± 6%
capacity for cross membrane transport of siRNA (quantity not given) [2]: 56 ± 4%

HHHHHRLFRALLRLLRSLWRLLLRAHHHHH [AP-32]
cell viability (cell viability): None of these peptides led to a significant alteration of cell viability

GLFRALLRLLRSLWRLLLRA [ppTG20, reference compound]
cell viability (cell viability): None of these peptides led to a significant alteration of cell viability

HLFRALLRLLRHLWRLLLRA [AP-10]
Remaining eGFP-mRNA in % of mock-transfected controls (eGFP-mRNA; peptide/siRNA ratio 8:1): 42 ± 3%
Remaining eGFP-mRNA in % of mock-transfected controls (eGFP-mRNA; peptide/siRNA ratio 10:1): 24 ± 4%
Remaining eGFP-mRNA in % of mock-transfected controls (eGFP-mRNA; peptide/siRNA ratio 12:1): 24 ± 2%
Remaining eGFP-mRNA in % of mock-transfected controls (eGFP-mRNA; peptide/siRNA ratio 14:1): 32 ± 4%
capacity for cross membrane transport of siRNA (quantity not given) [1]: 13 ± 8%
remaining E6AP mRNA (in % of mock) [1, 4]: 98 ± 8%
remaining E6AP mRNA (in % of mock) [1, 5]: 28 ± 4%
remaining E6AP mRNA (in % of mock) [1, 6]: 17 ± 1%
remaining E6AP mRNA (in % of mock) [1, 7]: 41 ± 21%
capacity for cross membrane transport of siRNA (quantity not given) [2]: 81 ± 16%

GLFRALLRLLRSLWRLLLRAHHHHH [AP-0]
cell viability (cell viability): None of these peptides led to a significant alteration of cell viability

RLFRALLRLLRSLWRLLLRA [AP-1]
cell viability (cell viability): None of these peptides led to a significant alteration of cell viability

HHHHHRLFRALLRLLRSLWRLLLRA [AP-30]
cell viability (cell viability): None of these peptides led to a significant alteration of cell viability

RLFRALLRLLRSLWRLLLRAHHHHHHHHHH [AP-34]
cell viability (cell viability): None of these peptides led to a significant alteration of cell viability

RLFRALLRLLRSLWRLLLRAHHHHH [AP-27]
cell viability (cell viability): None of these peptides led to a significant alteration of cell viability

GLFRALLRLLRSLWRLLLRAHHHH [ppTGHis, ppTG20 with 4 histidines added to the C-terminus]
transfection efficiency and resulting siRNA activity compared with Lipofectamine [3]: comparable to that of Lipofectamine™
transfection efficiency and resulting siRNA activity relative to ppTG20 [3]: approximately 10 fold
